Experimental data taken from PubChem BioAssay (NCI).
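A five-concentration, 48-hour dose response in 96-well plates underlies each endpoint, interpolated linearly between surrounding concentrations. At the GI50, growth is halved. At the TGI there is no net growth.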

Legend:
Assay in all cases: DTP human tumour cell line panel, 48 h
K-562 leukemia = tested on: K-562 leukemia
HL-60(TB) leukemia = tested on: HL-60(TB) leukemia
CAKI-1 renal = tested on: CAKI-1 renal
SF-539 CNS = tested on: SF-539 CNS
COLO 205 colon = tested on: COLO 205 colon
HCT-116 colon = tested on: HCT-116 colon
SR leukemia = tested on: SR leukemia
MOLT-4 leukemia = tested on: MOLT-4 leukemia
PC-3 prostate = tested on: PC-3 prostate
NCI/ADR-RES ovarian = tested on: NCI/ADR-RES ovarian
SK-MEL-5 melanoma = tested on: SK-MEL-5 melanoma
NCI-H460 lung = tested on: NCI-H460 lung
M14 melanoma = tested on: M14 melanoma
MALME-3M melanoma = tested on: MALME-3M melanoma
HS 578T breast = tested on: HS 578T breast
MDA-N = tested on: MDA-N
HCT-15 colon = tested on: HCT-15 colon
786-0 renal = tested on: 786-0 renal
KM12 colon = tested on: KM12 colon
HOP-92 NSCLC = tested on: HOP-92 NSCLC
EKVX NSCLC = tested on: EKVX NSCLC
MDA-MB-435 = tested on: MDA-MB-435
NCI-H23 lung = tested on: NCI-H23 lung
SN12C renal = tested on: SN12C renal
HOP-62 NSCLC = tested on: HOP-62 NSCLC
UO-31 renal = tested on: UO-31 renal
SNB-19 CNS = tested on: SNB-19 CNS
SK-OV-3 ovarian = tested on: SK-OV-3 ovarian
OVCAR-8 ovarian = tested on: OVCAR-8 ovarian
SK-MEL-28 melanoma = tested on: SK-MEL-28 melanoma
BT-549 breast = tested on: BT-549 breast
ACHN renal = tested on: ACHN renal
T-47D breast = tested on: T-47D breast
OVCAR-4 ovarian = tested on: OVCAR-4 ovarian
MDA-MB-231 breast = tested on: MDA-MB-231 breast
A498 renal = tested on: A498 renal
MCF7 breast = tested on: MCF7 breast
NCI-H522 lung = tested on: NCI-H522 lung
RPMI-8226 leukemia = tested on: RPMI-8226 leukemia
SK-MEL-2 melanoma = tested on: SK-MEL-2 melanoma
OVCAR-3 ovarian = tested on: OVCAR-3 ovarian
UACC-257 melanoma = tested on: UACC-257 melanoma
U251 CNS = tested on: U251 CNS
HT29 colon = tested on: HT29 colon
A549 NSCLC = tested on: A549 NSCLC
OVCAR-5 ovarian = tested on: OVCAR-5 ovarian
IGROV1 ovarian = tested on: IGROV1 ovarian
TK-10 renal = tested on: TK-10 renal
DU-145 prostate = tested on: DU-145 prostate
SF-295 CNS = tested on: SF-295 CNS
RXF 393 renal = tested on: RXF 393 renal
SW-620 colon = tested on: SW-620 colon
UACC-62 melanoma = tested on: UACC-62 melanoma
CCRF-CEM leukemia = tested on: CCRF-CEM leukemia
LOX IMVI melanoma = tested on: LOX IMVI melanoma
SF-268 CNS = tested on: SF-268 CNS

C=C1CC[C@@](C)(c2cc(Br)c(C)cc2OC(C)=O)[C@H]1C
GI50 (K-562 leukemia): 14 µM | TGI (K-562 leukemia): 30.2 µM | GI50 (HL-60(TB) leukemia): 11.9 µM | TGI (HL-60(TB) leukemia): 28.2 µM | GI50 (CAKI-1 renal): 14.7 µM | TGI (CAKI-1 renal): 28.8 µM | GI50 (SF-539 CNS): 13.5 µM | TGI (SF-539 CNS): 26.4 µM | GI50 (COLO 205 colon): 17.6 µM | TGI (COLO 205 colon): 31.3 µM | GI50 (HCT-116 colon): 8.81 µM | TGI (HCT-116 colon): 20.8 µM | GI50 (SR leukemia): 11.2 µM | TGI (SR leukemia): 27.1 µM | GI50 (MOLT-4 leukemia): 9.99 µM | TGI (MOLT-4 leukemia): 24.8 µM | GI50 (PC-3 prostate): 11.1 µM | TGI (PC-3 prostate): 24.2 µM | GI50 (NCI/ADR-RES ovarian): 12.1 µM | TGI (NCI/ADR-RES ovarian): 25 µM | GI50 (SK-MEL-5 melanoma): 15.6 µM | TGI (SK-MEL-5 melanoma): 29.2 µM | GI50 (NCI-H460 lung): 11.3 µM | TGI (NCI-H460 lung): 25 µM | GI50 (M14 melanoma): 15.9 µM | TGI (M14 melanoma): 30.6 µM | GI50 (MALME-3M melanoma): 15.2 µM | TGI (MALME-3M melanoma): 30.5 µM | GI50 (HS 578T breast): 19.3 µM | TGI (HS 578T breast): 42.5 µM | GI50 (MDA-N): 11.7 µM | TGI (MDA-N): 26.6 µM | GI50 (HCT-15 colon): 15.1 µM | TGI (HCT-15 colon): 31.3 µM | GI50 (786-0 renal): 12.6 µM | TGI (786-0 renal): 25.4 µM | GI50 (KM12 colon): 6.38 µM | TGI (KM12 colon): 21.1 µM | GI50 (HOP-92 NSCLC): 3.49 µM | TGI (HOP-92 NSCLC): 16.2 µM | GI50 (EKVX NSCLC): 14.7 µM | TGI (EKVX NSCLC): 28.2 µM | GI50 (MDA-MB-435): 13.3 µM | TGI (MDA-MB-435): 27.5 µM | GI50 (NCI-H23 lung): 13.9 µM | TGI (NCI-H23 lung): 28.2 µM | GI50 (SN12C renal): 11.4 µM | TGI (SN12C renal): 23.8 µM | GI50 (HOP-62 NSCLC): 17.5 µM | TGI (HOP-62 NSCLC): 31.8 µM | GI50 (UO-31 renal): 13.1 µM | TGI (UO-31 renal): 30.5 µM | GI50 (SNB-19 CNS): 15.5 µM | TGI (SNB-19 CNS): 31.2 µM | GI50 (SK-OV-3 ovarian): 16.4 µM | TGI (SK-OV-3 ovarian): 29.9 µM | GI50 (OVCAR-8 ovarian): 13.2 µM | TGI (OVCAR-8 ovarian): 27.8 µM | GI50 (SK-MEL-28 melanoma): 11.7 µM | TGI (SK-MEL-28 melanoma): 24 µM | GI50 (BT-549 breast): 19 µM | TGI (BT-549 breast): 34.1 µM | GI50 (ACHN renal): 13.7 µM | TGI (ACHN renal): 27.3 µM | GI50 (T-47D breast): 10.7 µM | TGI (T-47D breast): 27.8 µM | GI50 (OVCAR-4 ovarian): 3.63 µM | TGI (OVCAR-4 ovarian): 17.4 µM | GI50 (MDA-MB-231 breast): 12.5 µM | TGI (MDA-MB-231 breast): 25.9 µM | GI50 (A498 renal): 16.8 µM | TGI (A498 renal): 31.6 µM | GI50 (MCF7 breast): 12.8 µM | TGI (MCF7 breast): 28 µM | GI50 (NCI-H522 lung): 15 µM | TGI (NCI-H522 lung): 31.4 µM | GI50 (RPMI-8226 leukemia): 9.55 µM | TGI (RPMI-8226 leukemia): 24.9 µM | GI50 (SK-MEL-2 melanoma): 13.8 µM | TGI (SK-MEL-2 melanoma): 32.4 µM | GI50 (OVCAR-3 ovarian): 14.6 µM | TGI (OVCAR-3 ovarian): 29.2 µM | GI50 (UACC-257 melanoma): 16.1 µM | TGI (UACC-257 melanoma): 30.2 µM | GI50 (U251 CNS): 15.2 µM | TGI (U251 CNS): 29.7 µM | GI50 (HT29 colon): 14.9 µM | TGI (HT29 colon): 28.1 µM | GI50 (A549 NSCLC): 12.3 µM | TGI (A549 NSCLC): 26.5 µM | GI50 (OVCAR-5 ovarian): 15.1 µM | TGI (OVCAR-5 ovarian): 28.7 µM | GI50 (IGROV1 ovarian): 13.2 µM | TGI (IGROV1 ovarian): 29.4 µM | GI50 (TK-10 renal): 12 µM | TGI (TK-10 renal): 25 µM | GI50 (DU-145 prostate): 15.9 µM | TGI (DU-145 prostate): 31.9 µM | GI50 (SF-295 CNS): 10.7 µM | TGI (SF-295 CNS): 23.2 µM | GI50 (RXF 393 renal): 14.8 µM | TGI (RXF 393 renal): 32.5 µM | GI50 (SW-620 colon): 11.8 µM | TGI (SW-620 colon): 24.6 µM | GI50 (UACC-62 melanoma): 7.06 µM | TGI (UACC-62 melanoma): 20.1 µM | GI50 (CCRF-CEM leukemia): 8.88 µM | TGI (CCRF-CEM leukemia): 26.6 µM | GI50 (LOX IMVI melanoma): 14.8 µM | TGI (LOX IMVI melanoma): 31 µM | GI50 (SF-268 CNS): 13.2 µM | TGI (SF-268 CNS): 28.3 µM
